By IC50 is commonly meant the concentration at which inhibition is half-maximal. Usually LD50 stands for the dose at which mortality reaches 50%. Higher therefore signals lower toxicity.

From patent US6004967A, “Psoriasis treatment with quinazoline compounds” (priority 1997, dated 1999) come the findings set out here.

Like-named read-outs stand apart in the source and are kept apart here.

Data set [1] can be described thus: in vivo. Conditions: single dose, IP, BALB/c female mice; for LD50 at 168 h: mouse, in vivo; for LD50 at 168 h / LD10: 7 days; for deaths: at the dose for LD10/LD50.
The target of data set [2] is T1, human EGF-R (Homo sapiens, UniProt P00533).
T1 construct: expressed in transfected cells; host or cells: NIH3T3 clone C7 (mouse fibroblasts)
Nature of the data set: EGF-R whole cell kinase assay (EGF-R-3T3 ELISA). The settings on record: for IC50: whole cell, EGF-stimulated EGF-R phosphorylation, free base, read-out: EGFR Kinase IC50. It is filed as cell-based. Here is the method: The activity of the above identified compounds in inhibiting EGF-stimulatedEGF-R phosphorylation was measured in an ELISA assay.
EGF-R kinase activity (EGF-R-3T3 assay) in whole cells was measured as described below:
Coated plates are good for up to 10 days when stored at 4° C.
On day of use, remove coating buffer and replace with blocking buffer (5% Carnation Instant NonFat Dry Milk in PBS). Incubate the plate, shaking, at room temperature (about 23° C. to 25° C.) for 30 minutes. Just prior to use, remove blocking buffer and wash plate 4 times with TBST buffer.
EGF-R/C7 cell line was used for this assay.
Choose dishes having 80-90% confluence for the experiment. Trypsinize cells and stop reaction by adding 10% CS DMEM medium. Suspend cells in DMEM medium (10% calf serum (CS) DMEM medium) and centrifuge once at 1000 rpm, and once at room temperature for 5 minutes.
Resuspend cells in seeding medium (DMEM, 0.5% bovine serum), and count the cells using trypan blue. Viability above 90% is acceptable. Seed cells in DMEM medium (0.5% bovine serum) at a density of 10,000 cells per well, 100 μl per well, in a 96 well microtiter plate. Incubate seeded cells in 5% CO2 at 37° C. for about 40 hours.
Check seeded cells for contamination using an inverted microscope. Dilute drug stock (10 mg/ml in DMSO) 1:10 in DMEM medium, then transfer 5 μl to a test well for a final drug dilution of 1:200 and a final DMSO concentration of 1%. Control wells receive DMSO alone. Incubate in 5% CO2 at 37° C. for one hour.
Control wells receive DMEM alone. Incubate and shake at room temperature for 5 minutes.
Remove drug, EGF, and DMEM. Wash cells twice with PBS. Transfer HNTG* to cells, 100 μl per well. Place on ice for 5 minutes. Meanwhile, remove blocking buffer from other ELISA plate and wash with TBST as described above.
With a pipette tip securely fitted to a micropipettor, scrape cells from plate and homogenize cell material by repeatedly aspirating and dispensing the HNTG* lysis buffer. Transfer lysate to a coated, blocked, and washed ELISA plate. Incubate and shake at room temperature for one hour.
Remove lysate and wash 4 times with TBST. Transfer freshly diluted anti-phosphotyrosine (anti-Ptyr) antibody to ELISA plate at 100 μl per well. Incubate shaking at room temperature for 30 minutes in the presence of the anti-Ptyr antiserum (1:3000 dilution in TBST).
Remove the anti-Ptyr antibody and wash 4 times with TBST. Transfer the freshly diluted TAGO 30 anti-rabbit IgG antibody (anti-rabbit IgG antibody: 1:3000 dilution in TBST) to the ELISA plate at 100 μl per well. Incubate shaking at room temperature for 30 minutes.
Remove detection antibody and wash 4 times with TBST. Transfer freshly prepared ABTS/H2 O2 solution to ELISA plate, 100 μl per well. Incubate at room temperature for 20 minutes. ABTS/H2 O2 solution: 1.2 μl 30% H2 O2 in 10 ml ABTS stock.
Stop reaction by adding 50 μl 5N H2 SO4 (optional), and determine O.D. at 410 nm.
The maximal phosphotyrosine signal is determined by subtracting the value of the negative controls from the positive controls. The percent inhibition of phosphotyrosine content for extract-containing wells is then calculated after subtraction of the negative controls.
For orientation: An ELISA detects its analyte on a solid surface through an enzyme-linked reagent.

Data set [3] can be described thus: Plasma concentration after single IP dose. It is filed as in vivo. Conditions: mouse, plasma, single dose 50 mg/kg IP, BALB/c nu/nu female mice; for concentration at […]: 15 min; for concentration at 1 h: 60 min. Here is the method:
**Single dose (50 mg/kg), IP, in BALB/c, nu/nu, female mice.

Data set [4] relates to NIH 3T3 C7 cells engineered to express EGF-R (3T3-EGFR). The data set is described as follows: 3T3 cell growth assay, EGF-R C7 cells (3T3-EGFR). Format: cell-based. The settings on record: Mus musculus, NIH3T3, 96 h, read-out: 3T3-EGFR IC50. On the procedure:
The efficacy of the above identified compounds in inhibiting or reducing EGF-R stimulated proliferation is measured by the 3T3 cell growth assay. The 3T3 growth assay was carried out as follows:
EGF-RC7 (NIH 3T3 C7 cells engineered to express EGF-R) and NIH 3T3C7 cells (as the control) were used for this assay. NIH3T3C7 cells were seeded at 2500 cells/well, […] in 10% CS+2 mM Glutamine/DMEM, in a 96 well plate; EGF-RC7 cells were seeded at 6000 cells/well, 100 μl/well in 2% FBS+2 mM Glutamine/DMEM, in a 96 well plate. Cells were incubated at 37° C., 5% CO2 overnight to allow for cell attachment to the plate.
A quinazoline compound was added to the cells at day 2. The compound was prepared in the appropriate growth medium (10% CS+2 mM glutamine in DMEM for NIH3T3C7 cells; 2% FBS+2 mM Glutamine in DMEM for EGF-RC7 cells) in a 96 well plate, and serially diluted. A total of 100 μl/well medium of the diluted compounds was added into the cells. The total volume of each well was 200 μl.
After the cells were treated with the compound for 4 days, the cells were washed with PBS and fixed with 200 μl/well ice-cold […] for one hour at 0-5° C.
Remove TCA and rinse wells 5 times with deionized water. Dry plates upside down with paper towels. Stain cells with 0.4% SRB at 100 μl/well for 10 minutes.
Pour off SRB and rinse plate 5 times with 1% acetic acid. Dry plate completely.
Solubilize the dye with 10 mM Tris-base at 100 μl/well for 10 minutes on a shaker.
Read the plate at dual wavelengths at 570 nm and 630 nm on Dynatech Elisa plate reader.

In data set [5] the test system is 3T3-PDGFR. Nature of the data set: cell growth assay, PDGFR expressing cells (3T3-PDGFR), selectivity. Format: cell-based. Conditions: for IC50: 96 h, read-out: 3T3-PDGFR IC50; for PDGFR/EGFR IC50/IC50: ratio 3T3-PDGFR / 3T3-EGFR, 5760 min.
For data set [6], the system named is psoriatic human keratinocytes. The data set is described as follows: Growth of psoriatic human keratinocytes. Format: cell-based. An excerpt:
Cells and Cell Culture. All tumor cell lines were obtained from the American Type Culture Collection (Rockville, Md.), unless otherwise specified. NIH3T3 mouse fibroblasts overexpressing the EGF receptor, IGF-1 receptor, insulin receptor, PDGF-b receptor, or a chimera of the EGF receptor extracellular domain fused to the Her-2 cytoplasmic domain were engineered using retroviral vectors. These cells will be referred to as 3T3-EGFR, 3T3-IGF1R, 3T3-IR, 3T3-PDGF-bR, and 3T3-EGFR/Her-2, respectively. All cell culture media and supplements were purchased from Gibco Life Technologies (Grand Island, N.Y.) unless otherwise specified. […] Cell lines were maintained under standard conditions in culture media recommended by the ATCC, unless otherwise specified. 3T3-EGFR, 3T3-PDGF-bR, and 3T3-EGFR/Her-2 cells were maintained in DMEM containing 10% calf serum (CS) and 2 mM GLN. 3T3-IGF1R and 3T3-IR cells were maintained in DMEM containing 10% FBS and 2 mM GLN. Keratinocytes were obtained from small biopsy specimens of split-thicknessskin from patients with psoriasis and from healthy control donors.
In vitro functional studies. […] Cell lines examined in receptor phosphorylation ELISA were 3T3-EGFR, 3T3-EGFR/Her-2, 3T3-PDGF-bR, 3T3-IGF1R, and 3T3-IR. For analysis of DNA replication (measured as incorporation of BrdU) and cell cycle progression, 3T3-EGFR and 3T3-PDGF-bR cell lines were used. Cell growth studies were carried out on A431 (EGF-R+), BT474 (Her-2+), and C6 (PDGF-bR+) cell lines.

T1 sequence (P00533 25-1210): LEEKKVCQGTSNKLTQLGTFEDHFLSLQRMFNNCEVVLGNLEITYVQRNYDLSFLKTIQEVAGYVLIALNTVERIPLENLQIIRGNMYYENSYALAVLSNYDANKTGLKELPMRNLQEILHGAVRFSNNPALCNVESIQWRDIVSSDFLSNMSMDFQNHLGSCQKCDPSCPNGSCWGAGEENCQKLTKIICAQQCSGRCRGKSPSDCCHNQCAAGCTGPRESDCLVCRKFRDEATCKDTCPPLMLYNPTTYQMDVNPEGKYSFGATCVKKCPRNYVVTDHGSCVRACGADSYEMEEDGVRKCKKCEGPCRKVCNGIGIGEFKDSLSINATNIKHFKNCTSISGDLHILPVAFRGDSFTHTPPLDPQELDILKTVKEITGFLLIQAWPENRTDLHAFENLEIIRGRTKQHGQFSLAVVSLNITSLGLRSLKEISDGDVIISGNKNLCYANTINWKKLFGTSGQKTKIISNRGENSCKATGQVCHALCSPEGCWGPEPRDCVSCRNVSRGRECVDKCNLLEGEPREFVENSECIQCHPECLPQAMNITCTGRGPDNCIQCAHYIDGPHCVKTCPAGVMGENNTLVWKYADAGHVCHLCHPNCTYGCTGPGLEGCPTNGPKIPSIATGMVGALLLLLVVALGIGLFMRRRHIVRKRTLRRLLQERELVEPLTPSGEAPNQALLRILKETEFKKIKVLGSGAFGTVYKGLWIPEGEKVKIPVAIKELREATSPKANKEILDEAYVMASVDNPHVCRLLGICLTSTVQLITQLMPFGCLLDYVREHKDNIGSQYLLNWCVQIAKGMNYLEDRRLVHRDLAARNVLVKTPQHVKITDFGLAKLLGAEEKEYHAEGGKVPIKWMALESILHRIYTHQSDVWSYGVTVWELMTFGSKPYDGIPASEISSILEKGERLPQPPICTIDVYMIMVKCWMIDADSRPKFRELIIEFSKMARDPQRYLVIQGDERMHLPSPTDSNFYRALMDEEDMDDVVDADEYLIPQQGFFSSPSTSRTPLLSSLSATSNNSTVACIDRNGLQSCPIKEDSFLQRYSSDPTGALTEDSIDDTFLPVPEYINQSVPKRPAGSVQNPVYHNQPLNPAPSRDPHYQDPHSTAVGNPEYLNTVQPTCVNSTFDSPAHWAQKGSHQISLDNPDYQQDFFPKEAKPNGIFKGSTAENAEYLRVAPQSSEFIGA

In the case of `COc1cc2ncnc(Nc3cccc(C(F)(F)F)c3)c2cc1OC` [A4, 4-[3-(trifluoromethyl)phenylamino]-6,7-dimethoxyquinazoline], in data set [1] (printed in LD10 and LD50 columns), the LD40 came to 400 mg/kg. In data set [2], the “inhibition of EGF-stimulated EGF-R phosphorylation (in words)” value is recorded as “able to inhibit” and the IC50 is < 6 nM. In data set [3], this compound showed a concentration at 5 min of 13300 ± 1500 ng/mL, a concentration at […] of 12700 ± 3000 ng/mL and a concentration at 1 h of 3900 ng/mL. Further, in data set [4] (cell growth, 4 days, free base), the IC50 came to 400 nM. Besides, the concentration for half-maximal inhibition (IC50) in data set [5] (cell growth, 4 days, free base) was 28000 nM. In addition, the “PDGFR/EGFR IC50/IC50” value in data set [5] is recorded as 70. In data set [6], the “inhibition of psoriatic skin cell / keratinocyte proliferation in vitro (in words)” value was “capable of inhibiting”.
On to `Cc1ccc2ncnc(Nc3cccc(C(F)(F)F)c3)c2c1` [A6, 4-[3-(trifluoromethyl)phenylamino]-6-methylquinazoline], for which, in data set [1], the LD50 at 168 h is > 400 mg/kg, the LD10 is on record as > 400 mg/kg and the deaths entry is “no”. For the same compound, in data set [2], the “inhibition of EGF-stimulated EGF-R phosphorylation (in words)” value is given as “able to inhibit” and the half-inhibitory concentration (IC50) was determined as 900 nM. In data set [3], this compound came in with a concentration at 5 min of 4450 ± 1380 ng/mL, a concentration at […] of 2010 ± 530 ng/mL and a concentration at 1 h of 540 ± 200 ng/mL. In addition, the IC50 in data set [4] (cell growth, 4 days, free base) stood at 6000 nM. For the same compound, the half-maximal inhibitory concentration (IC50) in data set [5] (cell growth, 4 days, free base) worked out at 30000 nM. Also, the “PDGFR/EGFR IC50/IC50” value in data set [5] was 5. In addition, in data set [6], the “inhibition of psoriatic skin cell / keratinocyte proliferation in vitro (in words)” value is reported as “capable of inhibiting”.
As for `COc1cc2ncnc(Nc3cccc(Cl)c3)c2cc1OC` [A2, 4-(3-Chlorophenylamino)-6,7-dimethoxyquinazoline], in data set [1], the median lethal dose (LD50) at 168 h is > 200 mg/kg, the LD10 is recorded as > 200 mg/kg and the deaths entry is recorded as “no”. In data set [2], the “inhibition of EGF-stimulated EGF-R phosphorylation (in words)” value is “able to inhibit”. In data set [3], this compound registered a concentration at 5 min of 11500 ± 4000 ng/mL, a concentration at […] of 6500 ± 1300 ng/mL and a concentration at 1 h of 3700 ± 500 ng/mL. The 50% inhibitory concentration (IC50) in data set [4] was 110 nM. Besides, the half-inhibitory concentration (IC50) in data set [5] was 18000 nM. The “inhibition of psoriatic skin cell / keratinocyte proliferation in vitro (in words)” value in data set [6] was “capable of inhibiting”.
Turning to `Cc1ccc2ncnc(Nc3cccc(Cl)c3)c2c1` [A3, 4-(3-Chlorophenylamino)-6-methylquinazoline], in data set [1], the LD50 at 168 h was > 400 mg/kg. Besides, in data set [2], the “inhibition of EGF-stimulated EGF-R phosphorylation (in words)” value is “able to inhibit” and the IC50 turned out to be 58 nM. In data set [3], this compound had a concentration at 5 min of 7870 ± 980 ng/mL, a concentration at […] of 3430 ± 820 ng/mL and a concentration at 1 h of 1340 ± 110 ng/mL. For the same compound, the half-inhibitory concentration (IC50) in data set [4] (cell growth, 4 days, free base) was 2000 nM. Moreover, the half-inhibitory concentration (IC50) in data set [5] (cell growth, 4 days, free base) is 10000 nM. Besides, the “PDGFR/EGFR IC50/IC50” value in data set [5] came out at 5. In addition, the “inhibition of psoriatic skin cell / keratinocyte proliferation in vitro (in words)” value in data set [6] is listed as “capable of inhibiting”.
For `COc1cc2ncnc(Nc3cccc(C#N)c3)c2cc1OC` [A5, 4-(3-Cyanophenylamino)-6,7-dimethoxyquinazoline], in data set [1], the 50% lethal dose (LD50) at 168 h was > 153 mg/kg, the LD10 is > 153 mg/kg and the deaths entry is given as “no”. In addition, in data set [2], the “inhibition of EGF-stimulated EGF-R phosphorylation (in words)” value is recorded as “able to inhibit” and the 50% inhibitory concentration (IC50) stood at 200 nM. Moreover, in data set [3], the concentration at 5 min is 950 ± 420 ng/mL, the concentration at […] is 650 ± 190 ng/mL and the concentration at 1 h was determined as 130 ± 60 ng/mL. Further, the IC50 in data set [4] (cell growth, 4 days, free base) came to 1500 nM. The concentration for half-maximal inhibition (IC50) in data set [5] (cell growth, 4 days, free base) is > 100000 nM. Besides, the “PDGFR/EGFR IC50/IC50” value in data set [5] worked out at 67. In addition, the “inhibition of psoriatic skin cell / keratinocyte proliferation in vitro (in words)” value in data set [6] is “capable of inhibiting”.
